Source: patent US20050132430A1, “Igamete recruitment and developmental competence in mammals by inhibiting the de-nova sterol biosynthesis and/or promoting sterol efflux” (priority 2001, published 2005)

What was measured:
[1] = tested on: C57 black×DBA 2 F1 female mice; experiment: Number of 2-cells in tuba of gonadotropin-stimulated female mice after statin administration and mating; format: in vivo, mouse; settings: for No. of 2-cells in mated animals: pre-pubertal, Gnrh 12 I.U., hCG 10 I.U.
Procedure: Prepubertal C57 black×DBA 2 F1 female mice (M&B A/S, Ry, Denmark) were stimulated to super-ovulation (11 a.m. at day 0) by i.p. Injections of 12 IU Menogon® (Ferring, Denmark) in 200 μL H2O. […] Half of the mice were given additional Injections of 1.6 mg lovastatin, by dissolving a tablet of Mevacor® (Merck Sharp and Dohme, NL) containing 40 mg lovastatin in 5 ml PBS and injecting 200 μL of the resulting slurry i.p. at three consecutive days, beginning at day 0. […] The mice were caged individually one hour later with a mature male mouse of the same strain and supplier (1 male per female). Female and male mice were separated at 9 a.m. at day 3, females were left alone for another 48 h. After killing of the females and dissection of the tuba ovarii, 2-cells were flushed into a plastic dish with culture medium (see later) by mounting a glass pipette in one end of the isolated tuba and blowing by mouth through a filter. The total number of 2-cells flushed per mouse were hereafter counted. The 2-cells were subsequently cultured in Universal IVF-medium (Medicult, Denmark) in an incubator (37° C., 95% atmospheric air, 5% CO2) in 4-well dishes (Nunclon 176740, Nunc, Denmark). After 4 days of culture, wells were scored and numbers of morula, blastocyst or degenerated entities were determined by use of a microscope:
Prepubertal C57 black×DBA 2 F1 female mice (M&B A/S, Ry, Denmark) were treated as in example 1 but for a few deviations. […] In experiment B the dose of statins was decreased to 3×100 μg/animal and administered as in example 1. […] In experiment D the dose of gonadotropins were decreased gradually whereas the dose of statins was administered as in example 1.

[2] = tested on: gonadotrophin primed prepubertal mouse ovaries; experiment: Free cholesterol, FF-MAS and progesterone in ovaries of gonadotrophin primed prepubertal mice (HPLC); format: in vivo; settings: statin treatment on top of hCG
Procedure: Ovaries were isolated pair-wise, weighed, freeze-dried, weighed again and subsequently extracted in 1.0 ml (v/v) 75% n-heptane: 25% isopropanol. […] Eluted material was detected by ultraviolet light absorption between 200-300 nm. […] Standards for cholesterol (Steraloids […]) and P4 (Sigma P-0130) were obtained commercially whereas the FF-MAS standards used was produced in the laboratory as described before (Baltsen et al., 1999).

[3] = tested on: motile cell fraction of epididymis; experiment: C/PL-ratio in motile cell fraction of epididymis after statin administration; format: in vivo, mouse; settings: 3 i.p. injections of 1.0 mg lovastatin per 30 g body weight, male mice
Procedure: Post-pubertal C57 black×DBA 2 F1 male mice (M&B A/S, Ry, Denmark) are used. Four mice are given 3 i.p. injections of 1.0 mg lovastatin per 30 g body weight by dissolving a tablet of Mevacor® (Merck Sharp and Dohme, NL) containing 40 mg lovastatin in 8 ml PBS and injecting 200 μL of the resulting slurry i.p. at 1 p.m. at day-6, -3 and -1, counting the day of epididymal sperm harvest as day 0. […] At 10 a.m on day 0 all mice are killed and the epididymis are prepared in physiological saline. Thereafter, the epididymis are transferred to a 1-mL culture well containing MEM (Gibco BRL, Scotland) supplemented with 2.3 mM pyruvate, 200 mM L-glutamine (Gibco BRL, Scotland), 20000 IU/L penicillin (Gibco BRL, Scotland), 20000 IU/L streptomycin (Gibco BRL, Scotland) and 0.2 mg/ml BSA (Sigma A-7030, Sigma-Aldrich, Denmark) and placed in an incubator (37° C., 95% atmospheric air: 5% CO2).
After 1.5 hours of incubation, the upper liquid phase is aspirated and transferred to a new glass-vial and centrifuged. […] One half is subjected to sterol analysis as designated in the examples above and the total sterol content is calculated to consist of cholesterol, desmosterol, cholesta-7,24-dien-3β-ol, T-MAS and lanosterol. […] The C/PL-ratio is calculated for each individual animal.

[4] = tested on: C57 black×DBA 2 F1 male mice; experiment: Sperm quality in mice after statin administration; format: in vivo, mouse; settings: statin administration as in example 6
Procedure: The set-up involves the same animals and statin administration as in example 6. The animals are analysed by methods that are developed in order to evaluate the fertilising potential and sperm quality.

[5] = tested on: C57 black×DBA 2 F1 female mice; experiment: Number of 2-cells in tuba of gonadotropin-stimulated female mice after statin administration and mating; format: in vivo, mouse
[6] = tested on: patients with type II hyperlipoprotelnemia; settings: oral 40 mg daily for 4 months vs dietary management alone; cited from earlier work
[7] = tested on: naked mouse oocytes (NO); experiment: IVF fertilisation of naked oocytes after IVM with cyclodextrin; format: cell-based
Text: Mouse oocytes were isolated and cultured according to descriptions in […]. The NOs were divided into […] groups and cultured in dishes containing medium added either 0%o, 0.5%o, 2.0%o or 5%o hydroxypropyl-cyclodextrin (ICN 153540, ICN Ohio, U.S.A.). IVM and IVF conditions were the same as in example 6.

[8] = tested on: mouse cumulus enclosed oocytes (CEO); experiment: IVF fertilisation of cumulus enclosed oocytes after IVM with a statin; format: cell-based
Procedure: Mouse oocytes were isolated and cultured according to descriptions in example 3 but for a single deviation in that the IVM culture medium was further supplemented with 1 mg/mL Fetuin (Sigma F-3385, Sigma, U.S.A.). […] The ethanol was necessary in order to dissolve Mevinolin in the medium. After in vitro maturation for 22 h, oocytes were transferred to a fertilisationn medium consisting of minimal essential medium (MEM) (21090-022, Gibco BRL, Scotland), 200 mM L-glutamine (Gibco BRL, Scotland), 20000 IU/L penicillin (Gibco BRL, Scotland), 20000 IU/L streptomycin (Gibco BRL, Scotland), 3 mg/ml BSA (Sigma A-7030, Sigma-Aldrich, Denmark), 2.3 mM sodium pyruvate (S-8636, Sigma), 10 mM ethylen diamine tetra acetic acid (EDTA, Merck 1.08418.0250) and 1 mg/mL Fetuin (Sigma F-3385, Sigma, U.S.A.). Prior to oocyte transfer into the fertilisation medium, mouse sperm for IVF was obtained the following way: A 6-9 month old C57 black×DBA 2 F1 male mouse (M&B A/S, Ry, Denmark) was killed and the epididymis prepared in physiological saline. Thereafter, the epididymis were cut in small pieces and the bulk material was transferred to four 1-mL culture well containing the 800 μL IVF-medium described above and subsequently placed in an incubator (37° C., 95% atmospheric air: 5% CO2). After 1.5 hours of incubation, 300 μL of the upper liquid phase of each of the four wells was aspirated and transferred to a new glass-vial. The resulting pool of motile sperm was counted in a counting chamber and 50000 motile sperm cells was added each oocyte culture. […] These oocytes were left for another 48 hours and subsequently counted according to the maturational status of the oocyte or the progression of the fertilised zygote, i.e. GV-oocytes, GVBD-oocytes, PB-oocytes, PB^2-oocytes (oocytes with a visible second polar body), 2-cells, 3-4-cells, 4+ cells (zygotes with more than 4 blastomeres) and degenerated cells (usually granulated or cells with extensive plasma-membrane ondulation).

## CC[C@H](C)C(=O)O[C@H]1C[C@@H](C)C=C2C=C[C@H](C)[C@H](CC[C@@H]3C[C@@H](O)CC(=O)O3)[C@H]21 [Mevacor, lovastatin]
[1]; 2-cells cultured in vitro 4 days
  development of cultured 2-cells into blastocysts, recovery rates: indiscriminate to controls
[1]; 3×1.6 mg statin i.p. during follicular phase maturation, vs control
  number of 2-cells per animal: increased significantly
[1]; Exp. A, 100 μg single, ovulation
  No. of 2-cells in mated animals: 27.5 ± 3.5
[1]; Exp. A, 1000 μg single, ovulation
  No. of 2-cells in mated animals: 15.3 ± 7.3
[1]; Exp. B, 100 μg single, ovulation
  No. of 2-cells in mated animals: 19.3 ± 4.1
[1]; Exp. B, 3 × 100 μg multi, follicular phase
  No. of 2-cells in mated animals: 6.5 ± 1.0
[1]; hormone stimulated prepubertal female mice, average, FIG. 5
  more 2-cells as compared to mice stimulated with hormone alone: about 70%
[2]
  LH/hCG induced accumulation of FF-MAS: completely blocks
  extent of progesterone (steroid) production: not influenced
  tendency of decreasing tissue density of free cholesterol in the ovaries after hCG stimulation: pronounced
[3]
  C/PL-ratios vs control group: lower
[4]
  fertilising potential and sperm quality vs control animals: fertility premium
[5]; Exp. C, mature cycling, Gnrh 12 I.U., 3 × 1.0 mg multi, follicular phase
  No. of 2-cells in mated animals: 11.4 ± 2.9
[5]; Exp. C, mature cycling, Gnrh 15 I.U., hCG 10 I.U., 1.0 mg single, ovulation
  No. of 2-cells in mated animals: 16.8 ± 3.4
[5]; Exp. D, pre-pubertal, Gnrh 4 I.U., hCG 5 I.U., 3 × 1.0 mg multi, follicular phase
  No. of 2-cells in mated animals: 5
[6]
  sperm motility: small but statistically significant reduction

## CC(O)COC[C@H]1O[C@@H]2O[C@H]3[C@H](O)[C@@H](O)[C@@H](O[C@H]4[C@H](O)[C@@H](O)[C@@H](O[C@H]5[C@H](O)[C@@H](O)[C@@H](O[C@H]6[C@H](O)[C@@H](O)[C@@H](O[C@H]7[C@H](O)[C@@H](O)[C@@H](O[C@H]8[C@H](O)[C@@H](O)[C@@H](O[C@H]1[C@H](O)[C@H]2O)O[C@@H]8COCC(C)O)O[C@@H]7COCC(C)O)O[C@@H]6COCC(C)O)O[C@@H]5COCC(C)O)O[C@@H]4COCC(C)O)O[C@@H]3COCC(C)O (stereo partly drawn) [hydroxypropyl-beta-cyclodextrin, hydroxypropyl-β-cyclodextrin]
[7]; 0.5, 2.0 or 5 per mille in IVM-medium of NOs vs control
  fraction of fertilised oocytes (PB2-oocytes to 4+ cells) after IVF: increased
[7]; cyclodextrin in the IVM-medium
  rate of degeneration: not affected

## Mevinolin
[8]; 10 μM statin in IVM-medium 22 h, vs control and 7.5 I.U./L FSH
  fraction of fertilised oocytes (PB2-oocytes to 4+ cells) after IVF: increased
[8]; vs control and FSH groups
  state of development after 72 hours of embryo culture: more progressed state
[8]; vs control oocytes
  cumulus expansion after the IVM culture period: extensive cumulus expansion
